The values that follow are results of earlier work, collected in publication PMC6838683, “Discovery of Human Signaling Systems: Pairing Peptides to G Protein-Coupled Receptors” (Cell, 2019).

Where two headings read alike, the source gives them in different places. No end group written: not given here.

The data set relates to human GPCRs. Also on record: method as in Guide to Pharmacology database. Particulars: max reported value, ref Guide to Pharmacology database, cited from earlier work. The text has this: Supplement mmc1.xlsx, sheet "HumanGPCRLigands" | column: pKi_value; pKd_value; pEC50_value; pIC50_value
[1] abbreviates: receptor npbw1_human (NPBWR1, P48145).
[2] abbreviates: receptor npbw2_human (NPBWR2, P48146).
Where [3] appears, read: receptor NPY4R (npy4r_human, P50391).
[4] abbreviates: receptor NPY5R (npy5r_human, Q15761).
The mark [5] stands for this setting: receptor OPRL1 (oprx_human, P41146).
Setting [6] is: receptor RXFP1 (rxfp1_human, Q9HBX9).
Setting [7] is: receptor RXFP2 (rxfp2_human, Q8WXD0).
Where [8] appears, read: receptor RXFP3 (rl3r1_human, Q9NSD7).
Where [9] appears, read: receptor RXFP4 (rl3r2_human, Q8TDU9).
Setting [10] is: receptor crfr2_human (CRHR2, Q13324).
Where [11] appears, read: receptor UTS2R (ur2r_human, Q9UKP6).
Where [12] appears, read: receptor OPRK1 (oprk_human, P41145).
The mark [13] stands for this setting: receptor CCR3 (ccr3_human, P51677).
[14] abbreviates: receptor CCR1 (ccr1_human, P32246).
[15] abbreviates: receptor CCR5 (ccr5_human, P51681).
Setting [16] is: receptor CCR4 (ccr4_human, P51679).

With “neuropeptide B-29 (WYKPAAGHSSYSVGRAAGLLSGLRRSPYA; not fully specified; UniProt Q8NG41 25-53, looked up)”, the pIC50_value is, setting by setting: (receptor NPBWR2 (npbw2_human, P48146)) 9; under setting [1], 9.5.
For the molecule neuropeptide FF, the pKi_value reads like this: (receptor npff1_human (NPFFR1, Q9GZQ6)) 9.9; (receptor npff2_human (NPFFR2, Q9Y5X5)) 9.7.
“neuropeptide W-23 (WYKHVASPRYHTVGRAAGLLMGL)”: the pIC50_value runs as follows: under setting [1], 10; under setting [2], 9.6.
For “neuropeptide W-30 (WYKHVASPRYHTVGRAAGLLMGLRRSPYLW; not fully specified; UniProt Q8N729 33-62, looked up)”, the pIC50_value is 10.6 under setting [1] and 9.4 under setting [2].
For neuropeptide Y, the pKi_value reads like this: under setting [3], 8; under setting [4], 9.1.
For nociceptin/orphanin FQ, under setting [5], the pEC50_value is recorded as 9.8 and the pKi_value is 10.4.
For the molecule “orexin-A (QPLPDCCRQKTCSCRLYELLHGAGNHAAGILTL; not fully specified; ends and bridges not checked; UniProt O43612 34-66, looked up)”, the pEC50_value by setting is: (receptor HCRTR1 (ox1r_human, O43613)) 10.2; (receptor HCRTR2 (ox2r_human, O43614)) 10.
Consider pancreatic polypeptide, for which the pKi_value is, setting by setting: under setting [3], 10.9; under setting [4], 8.
Regarding relaxin, under setting [6], the pEC50_value is 10.4 and the pKi_value is 10.2. Under setting [7], the pEC50_value is 9.1 and the pKi_value is 8.5. For the same molecule, under setting [8], the pEC50_value was 8.4 and the pKd_value was 10.
As to relaxin-3, the pKi_value by setting is: under setting [6], 8; under setting [7], 7; under setting [8], 8.9; under setting [9], 9. In addition, the pEC50_value reads like this: under setting [8], 9.9; under setting [9], 9. Also, the pIC50_value is, setting by setting: under setting [8], 9.6; under setting [9], 9.
For secretin, the pEC50_value (receptor sctr_human (SCTR, P47872)) is 9.7.
As to “urocortin 1 (DNPSLSIDLTFHLLRTLLELARTQSQRERAEQNRIIFDSV; ends and bridges not checked; UniProt P55089 83-122, looked up)”, the pKd_value is 9.5 (receptor crfr1_human (CRHR1, P34998)) and 9.6 under setting [10].
Turning to “urocortin 2 (IVLSLDVPIGLLQILLEQARARAAREQATTNARILARVGHC; ends and bridges not checked; UniProt Q96RP3 72-112, looked up)”, the pKd_value under setting [10] is 8.6.
Consider “urocortin 3 (FTLSLDVPTNIMNLLFNIAKAKNLRAQAAANAHLMAQI; not fully specified; ends and bridges not checked; UniProt Q969E3 120-157, looked up)”, for which the pKd_value under setting [10] is on record as 8.
With urotensin II-related peptide, under setting [11], the pIC50_value is listed as 8.6 and the pKd_value was 9.6.
With “α-neoendorphin (YGGFLRKYPK; Alpha-neoendorphin; UniProt P01213 175-184, looked up)”, the pKi_value under setting [12] is reported as 10.2.
Consider β-CGRP, for which the pEC50_value (receptor calcr_human (CALCR), Calcitonin receptors, Class B1 (Secretin)) is given as 7.2.
With β-endorphin, the pKi_value is 8.3 (receptor OPRD1 (oprd_human, P41143)) and 7.9 under setting [12].
On to β-neoendorphin (YGGFLRKYP), for which the pKi_value under setting [12] is recorded as 7.9.
Regarding γ-MSH, the pKd_value (receptor mc3r_human (MC3R, P41968)) is reported as 8.5.

B1: CCL24 (protein, UniProt O00175 27-119, looked up)
C-C motif chemokine 24: VVIPSPCCMFFVSKRIPENRVVSYQLSSRSTCLKAGVIFTTKKGQQFCGDPKQEWVQRYMKNLDAKQKKASPRARAVAVKGPVQRYPGNQTTC
In the case of B1, under setting [13], the pIC50_value was 9.4.

B2: CCL23 (protein, UniProt P55773 22-120, looked up)
C-C motif chemokine 23: RVTKDAETEFMMSKLPLENPVLLDRFHATSADCCISYTPRSIPCSLLESYFETNSECSKPGVIFLTKKGRRFCANPSDKQVQVCMRMLKLDTRIKTRKN
For B2, the pKi_value under setting [14] was 8.9.

B3: CCL8 (protein, UniProt P80075 24-99, looked up)
C-C motif chemokine 8: QPDSVSIPITCCFNVINRKIPIQRLESYTRITNIQCPKEAVIFKTKRGKEVCADPKERWVRDSMKHLDQIFQNLKP
With B3, where the note is “receptor CCR2 (ccr2_human, P41597)”, the pIC50_value is recorded as 8.6. The pKi_value under setting [15] is given as 9.3.

B4: CCL17 (protein, UniProt Q92583 24-94, looked up)
C-C motif chemokine 17: ARGTNVGRECCLEYFKGAIPLRKLKTWYQTSEDCSRDAIVFVTVQGRAICSDPNNKRVKNAVKYLQSLERS
Take B4: the pIC50_value under setting [16] is listed as 8.7.

B5: large neuromedin N (protein, UniProt P30990 24-148, looked up)
Large neuromedin N: SDSEEEMKALEADFLTNMHTSKISKAHVPSWKMTLLNVCSLVNNLNSPAEETGEVHEEELVARRKLPTALDGFSLEAMLTIYQLHKICHSRAFQHWELIQEDILDTGNDKNGKEEVIKRKIPYIL
modifications: Large neuromedin N
Take B5: where the note is “receptor NTSR1 (ntr1_human, P30989)”, the pIC50_value is recorded as 7.4.

B6: CCL4 (protein, UniProt P13236 24-92, looked up)
C-C motif chemokine 4: APMGSDPPTACCFSYTARKLPRNFVVDYYETSSLCSQPAVVFQTKRSKQVCADPSESWVQEYVYDLELN
For B6, the pKi_value reads like this: under setting [14], 7.8; under setting [15], 9.6.

B7: CCL22 (protein, UniProt O00626 25-93, looked up)
C-C motif chemokine 22: GPYGANMEDSVCCRDYVRYRLPLRVVKHFYWTSDSCPRPGVVLLTFRDKEICADPRVPWVKMILNKLSQ
In the case of B7, the pIC50_value under setting [16] is listed as 9.2.

B8: CXCL7 (protein, UniProt P02775 59-128, looked up)
Neutrophil-activating peptide …: AELRCMCIKTTSGIHPKNIQSLEVIGKGTHCNQVEVIATLKDGRKICLDPDAPRIKKIVQKKLAGDESAD
modifications: Neutrophil-activating peptide 2
Regarding B8, the pIC50_value (receptor CXCR2 (cxcr2_human, P25025)) is listed as 9.3.

B9: INSL3 (protein, UniProt P51460 21-55; P51460 106-131, looked up)
Insulin-like 3 B chain: LGPAPTPEMREKLCGHHFVRALVRVCGGPRWSTEA
Insulin-like 3 A chain: AAATNPARYCCLSGCTQQDLLTLCPY
In the case of B9, under setting [7], the pKd_value is on record as 10.4 and the pKi_value is 9.7.

B10: CCL15 (protein, UniProt Q16663 22-113, looked up)
C-C motif chemokine 15: QFTNDAETELMMSKLPLENPVVLNSFHFAADCCTSYISQSIPCSLMKSYFETSSECSKPGVIFLTKKGRQVCAKPSGPGVQDCMKKLKPYSI
Consider B10, for which the pIC50_value by setting is: under setting [14], 7.9; under setting [13], 8.6.

B11: CCL14 (protein, UniProt Q16627 20-93, looked up)
C-C motif chemokine 14: TKTESSSRGPYHPSECCFTYTTYKIPRQRIMDYYETNSQCSKPGIVFITKRGHSVCTNPSDKWVQDYIKDMKEN
On to B11, for which the pKi_value by setting is: under setting [14], 7.4; under setting [15], 7.2.

B12: annexin I (protein, UniProt P04083 2-346, looked up)
Annexin A1: AMVSEFLKQAWFIENEEQEYVQTVKSSKGGPGSAVSPYPTFNPSSDVAALHKAIMVKGVDEATIIDILTKRNNAQRQQIKAAYLQETGKPLDETLKKALTGHLEEVVLALLKTPAQFDADELRAAMKGLGTDEDTLIEILASRTNKEIRDINRVYREELKRDLAKDITSDTSGDFRNALLSLAKGDRSEDFGVNEDLADSDARALYEAGERRKGTDVNVFNTILTTRSYPQLRRVFQKYTKYSKHDMNKVLDLELKGDIEKCLTAIVKCATSKPAFFAEKLHQAMKGVGTRHKALIRIMVSRSEIDMNDIKAFYQKMYGISLCQAILDETKGDYEKILVALCGGN
With B12, the pKd_value (receptor fpr2_human (FPR2, P25090)) was 6.5.
